Assay results from patent US9993480B2, “mTOR/JAK inhibitor combination therapy” (NOVARTIS PHARMA AG, priority 2011, dated 2018).
Several values for one entry are separate records, joined by “and”; a condition that tells them apart may be missing. Equal values may be shown once. Entries after “also recorded” stand apart in the source; their conditions may differ. Read-outs that look alike come from different tables or passages of the source. Each block holds one molecule with its values, some of them ahead of it.

Legend:
HEL cells [1] = assay: Proliferation inhibition assay (WST-1); type: cell-based, human
Excerpt: (§1) The HEL, SET2 and K562 human cell lines were purchased from the German Collection of Microorganisms and Cell Cultures (DSMZ, Braunschweig, Germany). Murine BaF/3 and BaF/3-EPOR cells expressing JAK2 wild-type (wt) or JAK2V617F were donated by R. Skoda (Basel, Switzerland).

K562 cells [2] = assay: Proliferation inhibition assay (WST-1); type: cell-based, human
Excerpt: as §1

SET2 cells [3] = assay: Proliferation inhibition assay (WST-1); type: cell-based, human
Excerpt: as §1

[4] = system: BaF/3 cells expressing JAK2 wild-type; assay: Proliferation inhibition assay (WST-1); type: cell-based, murine; conditions: Mus musculus, BaF3; BaF/3 WT; mIL-3 in culture medium
Excerpt: as §1

[5] = system: BaF/3 cells expressing JAK2V617F; assay: Proliferation inhibition assay (WST-1); type: cell-based, murine; conditions: Mus musculus, BaF3; BaF/3 V617F, absence of IL-3
Excerpt: as §1

[6] = system: BaF/3-EPOR cells expressing JAK2 wild-type; assay: Proliferation inhibition assay (WST-1); type: cell-based, murine; conditions: Mus musculus; BaF/3-EPOR WT; EPO in culture medium
Excerpt: as §1

[7] = system: BaF/3-EPOR cells expressing JAK2V617F; assay: Proliferation inhibition assay (WST-1); type: cell-based, murine
Excerpt: as §1

UKE-1 cells = assay: Clonogenic assay; type: cell-based; conditions: compared with K562
[8] = system: Peripheral Blood mononuclear cells from PV patients; assay: EEC colony formation assay; type: cell-based; conditions: Homo sapiens
[9] = system: CD34+ cells from MPN patients; assay: Clonogenic assay with JAK2V617F single-colony genotyping; type: cell-based, human; conditions: for % decrease V617F: RAD001 50 nM vs without
Description: Samples of peripheral blood (PB) or bone marrow (BM) were obtained from patients diagnosed with PV or PMF (2008 WHO criteria) under a protocol approved by Institutional Review Board of Azienda Ospedaliera-Universitaria Careggi and after obtaining an informed consent. Healthy donors of hematopoietic stem cells provided informed consent to donate excess CD34^+ cells. Research was carried out according to the principles of Declaration of Helsinki. CD34^+ cells were immunomagnetically selected as described. The JAK2V617F mutational status was determined by a quantitative real-time PCR assay in granulocytes.
BM mononuclear cells from MPN patients or control subjects were plated at 1×10^5/mL in methylcellulose (MethoCult; StemCell Technologies, Vancouver, Canada) supplemented with SCF 50 ng/mL, IL-3 10 ng/mL, IL-6 10 ng/mL, GM-CSF 10 ng/mL, G-CSF 10 ng/mL and EPO 3 U/mL for the growth of BFU-E and CFU-GM. EEC assay was performed by plating 2.5×10^5/mL PB mononuclear cells from PV patients in methylcellulose containing leukocyte-conditioned medium without EPO (StemCell Technol., cat. No. #04531). For the growth of CFU-Mk, 5×10^4/mL CD34^+ cells were plated in a 24-well plate in Megacult Collagen and medium with lipids (StemCell Technol.) supplemented with Thrombopoietin 50 ng/mL, IL-3 10 ng/mL, IL-6 10 ng/mL. Colonies were enumerated on day 14 according to standard criteria.
For JAK2V617F single-colony genotyping an allele-specific PCR assay was used. Well-separated colonies (at least 40 colonies per point) were individually plucked off the semisolid medium in 5 μL DNase/RNase-free water, lysed at 95° C. for 5 minutes, and subjected to PCR amplification and gel electrophoresis.

SET2 cells [10] = assay: Apoptosis by Annexin V flow cytometry; type: cell-based, human; conditions: SET2 cells exposed for 48 h
Excerpt: Results are expressed ad percent viable cells compared to control wells containing vehicle (DMSO) only. The fraction of necrotic cells was identified as the double-positive Annexin V/propidium iodide cells.

SET2 cells [11] = assay: Cell cycle distribution analysis by flow cytometry; type: cell-based, human; conditions: at IC50 concentration
HEL cells [12] = assay: Cell cycle distribution analysis by flow cytometry; type: cell-based, human; conditions: at IC50 concentration
[13] = system: JAK2, STAT5, and 4EBP1 in SET2 cells; assay: Western blot of mTOR and JAK/STAT signaling; type: cell-based, human
Description: (§2) Cells were resuspended in RIPA lysis buffer (50 mM pH 7.4 Tris-HCl, 150 mM NaCl, 1% NP-40, 1 mMEDTA) containing a proteinase inhibitor cocktail (Halt Protease Inhibitor Cocktail Kit, PIERCE, Rockford, Ill., US) and subjected to sodium dodecyl sulphate polyacrylamide gel electrophoresis separation and western blotting onto Immunoblot PVDF membrane (BioRad, Hercules, Calif., US), according to standard protocols.
SET2 cells were incubated for 24 h with increasing concentrations of the drugs, and the level of total and phosphorylated JAK2, STAT5, and 4EBP1 was analyzed by western blot. Tubulin was used for loading normalization.

[14] = system: 4E-BP1 and STAT5 in Ba/F3 and Ba/F3-EPOR cells; assay: Western blot of 4E-BP1 and STAT5 phosphorylation; type: cell-based, murine
Description: as §2
To better characterize the correlation between JAK2V617F mutation and mTOR activation, as well as the consequences of mTOR inhibition on STAT5 phosphorylation, BA/F3 and Ba/F3-EPOR cells were used. First, it was observed that 4E-BP1 was minimally phosphorylated in JAK2 wt Ba/F3 and Ba/F3-EPOR cells deprived of cytokines, while it was hyper-phosphorylated in V617F cells, supporting previous data on Akt constitutive activation in JAK2V617F-mutated cells. […] STAT5 phosphorylation was greater in V617F cells compared to IL-3- or EPO-deprived JAK2 wt Ba/F3 or Ba/F3-EPOR cells, and it did increase substantially after cytokine exposure.

K562 cells [15] = assay: Clonogenic assay in agar; conditions: Homo sapiens, K562, 168 h, read-out: IC50, clonogenic assay
HEL cells [16] = assay: Clonogenic assay in agar; conditions: Homo sapiens, 168 h, read-out: IC50, clonogenic assay
SET2 cells [17] = assay: Clonogenic assay in agar
Ba/F3 JAK2 V617F cells = assay: Clonogenic assay in agar; conditions: Mus musculus, BaF3, 168 h, read-out: IC50, clonogenic assay
[18] = system: Ba/F3 epoR JAK2 wild-type cells; assay: Clonogenic assay in agar; conditions: Mus musculus, BaF3, 168 h, read-out: IC50, clonogenic assay
[19] = system: Ba/F3 epoR JAK2 V617F cells; assay: Clonogenic assay in agar; conditions: Mus musculus
[20] = Homo sapiens, SET-2, SET2, individual drug, read-out: IC50, proliferation inhibition
[21] = SET2, 24 h, increasing concentrations
[22] = Homo sapiens, SET-2, read-out: IC50 of Cmp A in drug combination with PP242
[23] = Homo sapiens, SET-2, read-out: IC50 of Cmp A in drug combination with RAD001

IC50 (K562 cells [2]; Homo sapiens): 16 µM
IC50 ([8]; PBMC, read-out: IC50 of the mTOR inhibitor in drug combination with Cmp A): 0.0019 µM
IC50 ([8]; PBMC from PV patients, individual drug, read-out: IC50, clonogenic potential (EEC)): 0.015 ± 0.01 µM
IC50 (K562 cells [15]): 10 µM
IC50 (HEL cells [16]): 0.085 ± 0.03 µM
IC50 (SET2 cells [17]; Homo sapiens, SET-2, read-out: IC50 of the mTOR inhibitor in drug combination with Cmp A, SET2, clonogenic agar assay, median of at least 3 experiments): 0.007 µM
IC50 (SET2 cells [17]; read-out: IC50, clonogenic assay, SET2, colonies day 7, individual drug): 0.13 µM and 0.044 µM
IC50 (Ba/F3 JAK2 V617F cells): 0.006 ± 0.002 µM
IC50 [18]: 0.022 ± 0.01 µM
IC50 ([19]; BaF3, 168 h, read-out: IC50, clonogenic assay): 0.004 ± 0.002 µM
IC50 ([19]; BaF3, read-out: IC50 of the mTOR inhibitor in drug combination with Cmp A): 0.0011 µM
SMILES: CO[C@H]1C[C@@H]2CC[C@@H](C)[C@@](O)(O2)C(=O)C(=O)N2CCCC[C@H]2C(=O)O[C@H]([C@H](C)C[C@@H]2CC[C@@H](OCCO)[C@H](OC)C2)CC(=O)[C@H](C)/C=C(\C)[C@@H](O)[C@@H](OC)C(=O)[C@H](C)C[C@H](C)/C=C/C=C/C=C/1C [RAD001, Everolimus]
IC50 (HEL cells [1]; Homo sapiens): 14 µM
IC50 (SET2 cells [3]; Homo sapiens, SET-2, read-out: IC50 of the mTOR inhibitor in drug combination with Cmp A): 0.0031 µM
IC50 (SET2 cells [3]; [20]): 17 µM
IC50 [4]: 2.6 µM
IC50 [5]: 0.01 ± 0.004 µM
IC50 [6]: > 10 µM
IC50 ([7]; BaF/3-EPOR V617F + EPO, read-out: IC50, proliferation inhibition): 1.23 µM
IC50 ([7]; BaF/3-EPOR V617F, absence of EPO, individual drug, read-out: IC50, proliferation inhibition): 0.651 ± 0.05 µM
IC50 ([7]; Mus musculus, BaF/3-EPOR V617F + EPO, read-out: IC50, proliferation inhibition): 1.21 µM
IC50 ([7]; Mus musculus, JAK2V617F Ba/F3-EPOR, proliferation, median of at least 3 experiments, read-out: IC50 of the mTOR inhibitor in drug combination with Cmp A): 0.363 µM
clonogenic potential (UKE-1 cells): impaired the clonogenic potential
JAK2 genotype V617F colonies (%) ([9]; Pat. # 1, RAD001 50 nM): 6%
JAK2 genotype Wild-type colonies (%) ([9]; Pat. # 1, RAD001 50 nM): 94%
% decrease V617F ([9]; Pat. # 1): 70%
JAK2 genotype V617F colonies (%) ([9]; Pat. # 2, RAD001 50 nM): 40%
JAK2 genotype Wild-type colonies (%) ([9]; Pat. # 2, RAD001 50 nM): 60%
% decrease V617F ([9]; Pat. # 2): 15%
JAK2 genotype V617F colonies (%) ([9]; Pat. # 3, RAD001 50 nM): 57%
JAK2 genotype Wild-type colonies (%) ([9]; Pat. # 3, RAD001 50 nM): 43%
% decrease V617F ([9]; Pat. # 3): 21%
JAK2 genotype V617F colonies (%) ([9]; Pat. # 4, RAD001 50 nM): 40%
JAK2 genotype Wild-type colonies (%) ([9]; Pat. # 4, RAD001 50 nM): 58%
% decrease V617F ([9]; Pat. # 4): 17%
JAK2 genotype V617F colonies (%) ([9]; Pat. # 5, RAD001 50 nM): 9%
JAK2 genotype Wild-type colonies (%) ([9]; Pat. # 5, RAD001 50 nM): 91%
% decrease V617F ([9]; Pat. # 5): 72%
% decrease V617F, Mean ± SD ([9]; mean of 5 patients, RAD001 50 nM): 39% and 39 ± 29%
cell apoptosis (Annexin V-positive cells) (SET2 cells [10]): largely ineffective in inducing cell death; also recorded: did not induce cell death
cell cycle effect (SET2 cells [11]): cell cycle arrest of SET2 and HEL cells in the G0/G1 phase
cell cycle effect (HEL cells [12]): cell cycle arrest of SET2 and HEL cells in the G0/G1 phase
phosphorylated JAK2 [13, 21]: unaffected
phosphorylation of 4E-BP1 [13, 21]: dose-dependently reduced phosphorylation; also recorded: inhibited the phosphorylation
phosphorylation of STAT5 [13, 21]: dose-dependently reduced phosphorylation; also recorded: appreciable decrease of STAT5 phosphorylation
total JAK2 [13, 21]: unaffected
STAT5 phosphorylation ([14]; evident at 60 min, up to 24 h, not shown): significantly downregulated
4E-BP1 phosphorylation ([14]; persisted up to at least 24 h, data not shown): marked inhibition

SMILES: N#CC[C@H](C1CCCC1)n1cc(-c2ncnc3[nH]ccc23)cn1 [Compound A, (3R)-3-cyclopentyl-3-[4-(7H-pyrrolo[2,3-d]pyrimidin-4-yl)-1H-pyrazol-1-yl]propanenitrile]
IC50 (SET2 cells [3]; [22]): 0.047 µM
IC50 (SET2 cells [3]; [23]): 0.029 µM
IC50 ([8]; PBMC, read-out: IC50, clonogenic potential (EEC)): 0.0018 ± 0.001 µM
IC50 ([8]; PBMC, read-out: IC50 of Cmp A in drug combination with PP242): 0.0001 µM
IC50 ([8]; PBMC, read-out: IC50 of Cmp A in drug combination with RAD001): 0.0002 µM
cell apoptosis (Annexin V-positive cells) (SET2 cells [10]): dose-dependently potent inducers of cell apoptosis; also recorded: potently induced cell apoptosis
phosphorylated JAK2 [13]: markedly and dose-dependently reduced phosphorylation
phosphorylation of 4E-BP1 [13]: unaffected
phosphorylation of STAT5 [13]: markedly and dose-dependently reduced phosphorylation
IC50 (K562 cells [15]): > 15 µM
IC50 (HEL cells [16]): 0.374 ± 0.177 µM
IC50 (SET2 cells [17]; [22]): 0.0076 µM
IC50 (SET2 cells [17]; [23]): 0.004 µM

IC50 (K562 cells [2]): 4910 µM
SMILES: NC(=O)NO [HuOH, hydroxyurea]
IC50 (HEL cells [1]): 410 µM
IC50 (SET2 cells [3]; SET2, read-out: IC50, proliferation inhibition): 330 µM
cell apoptosis (Annexin V-positive cells) (SET2 cells [10]): induced dose-dependent cell apoptosis
phosphorylation of 4E-BP1 [13, 21]: did not affect
phosphorylation of STAT5 [13, 21]: did not affect

IC50 (K562 cells [2]; Homo sapiens): 0.031 ± 0.008 µM
SMILES: Cc1[nH]c2ccccc2c1CCNCc1ccc(/C=C/C(=O)NO)cc1 [Panobinostat]
IC50 (HEL cells [1]; Homo sapiens): 0.008 ± 0.003 µM
IC50 (SET2 cells [3]; [20]): 0.007 ± 0.002 µM
